Values of other authors, collected in patent US20230046963A1, “METHOD FOR DYEING KERATINOUS MATERIAL, COMPRISING THE USE OF AN ORGANOSILICON COMPOUND, A DYEING COMPOUND AND A PRE-TREATMENT AGENT” (Henkel AG & Co. KGaA, priority 2019, published 2023).

Conditions: 25° C.

Molecule	solubility in water	solubility in water (in words)
O=S(=O)([O-])c1ccc(N=Nc2c(O)ccc3ccccc23)cc1.[Na+] [Acid Orange 7, sodium salt of 4-[(2-hydroxy-1-naphthyl)azo]benzenesulfonate]	more than 7 g/L	–
Nc1cc(S(=O)(=O)[O-])cc2cc(S(=O)(=O)[O-])c(N=Nc3ccccc3)c(O)c12.[Na+].[Na+] [Acid Red 33, disodium salt of 5-amino-4-hydroxy-3-(phenylazo)-naphthalene-2,7-disulphonate]	2.5 mg/mL	–
O=C([O-])c1c(Cl)c(Cl)c(Cl)c(Cl)c1-c1c2c(Br)cc(=O)c(Br)c-2oc2c(Br)c(O)cc(Br)c12.O=C([O-])c1c(Cl)c(Cl)c(Cl)c(Cl)c1-c1c2c(Br)cc(=O)c(Br)c-2oc2c(Br)c(O)cc(Br)c12.[Na+].[Na+] [Acid Red 92, disodium salt of 3,4,5,6-tetrachloro-2-(1,4,5,8-tetrabromo-6-hydroxy-3-oxoxanthen-9-yl)benzoic acid]	greater than 10 g/L	–

Second part, the molecule after the results:

solubility in water	solubility in water (in words)	Molecule
–	readily soluble in water	O=C([O-])C1=NN(c2ccc(S(=O)(=O)[O-])cc2)C(=O)C1N=Nc1ccc(S(=O)(=O)[O-])cc1.[Na+].[Na+].[Na+] (centres unmarked) [Acid Yellow 23, trisodium salt of 4,5-dihydro-5-oxo-1-(4-sulfophenyl)-4-((4-sulfophenyl)azo)-1H-pyrazole-3-carboxylic acid]
20 mg/mL	–	mixture of the sodium salts of mono- and disulfonic acids of 2-(2-quinolyl)-1H-indene-1,3(2H)-dione [Acid Yellow 3]
